Measurements reported in patent US11612163B2, “Stabilization of whole blood samples” (The General Hospital Corporation, priority 2014, dated 2023).
“Also recorded” adds a separate entry of the source.

Tests used:
Assay type in all cases: cell-based, human
neutrophil elastase = experiment: Quantification of neutrophil elastase (NETosis); conditions: fresh whole blood stimulated, positive control for NETs, n=7
Procedure: Blood samples were mixed gently, warmed to 37° C. for four hours for the release of NETs contents into the plasma, and diluted with PBS to a final blood volume fraction of 25% before centrifugation at 2000×g for 5 minutes. The supernatant was then carefully transferred to a new centrifuge tube and stored at −80° C. for further processing. The level of neutrophil elastase was quantified using the Neutrophil Elastase Activity Assay Kit (Cayman Chemical Company) according to manufacturer's protocol, using a SpectraMax M5 spectrometer (Molecular Devices). As a positive control for NETosis, phorbol myristate acetate (100 nM) was added to fresh whole blood prior to incubation.

platelets = experiment: Platelet activation surface markers by imaging flow cytometry; conditions: dosages 0.01-0.5 ug/mL, 20 min at 4 or 22° C.
Procedure: Platelet inhibitors used include: Tirofiban (Sigma), Eptifibatide (Tocris), Clopidogrel (Sigma), KF38789 (Tocris). In all experimental conditions that involved treatment with platelet inhibitors (e.g., tirofiban, eptifibatide, etc.), these compounds were added to blood samples and mixed by gentle rocking for 10 minutes before the sample was processed for other assays or storage. The addition of EDTA, unless otherwise stated, occurred 15 minutes prior to the assay (i.e., EDTA was not present during sample storage).
Platelet activation and cell viability were determined using the Image Stream Mark II imaging flow cytometer (Amnis Corporation) equipped with a 40× objective and the 405, 488, 642 nm lasers. For the platelet activation panel, 1 μl of whole blood was combined with PBS and fluorescently labeled antibodies as follows; Pacific Blue conjugated CD41 (1:150; clone HIP8; BioLegend), FITC conjugated PAC-1 (1:10; clone PAC-1 (RUO (GMP)); BD Pharmingen), PE conjugated CD62P (1:100; clone AK-4; BD Pharmingen), APC conjugated CD63 (1:10; clone H5C6; Biolegend), PE/Cy7 conjugated CD45 (1:100; clone HI30; Abcam). […]

neutrophils [1] = experiment: Apoptosis/necrosis inhibitors as preservatives of isolated neutrophils
Procedure: Evaluation of apoptosis and necrosis inhibitors as neutrophil preservatives. Neutrophils were isolated by negative selection from healthy donor whole blood using the recommended protocol and reagents from the Human Neutrophil Enrichment Kit (StemCell Technologies; Vancouver, British Columbia, Canada). Yield was determined by counting particles from 8-30 μm in diameter using a Coulter Counter Z1 (Beckman Coulter; Brea, Calif.). Neutrophils were stored in IMDM+20% FBS and were either untreated (control) or treated with 1.25 μL/mL DMSO (Sigma-Aldrich; St. Louis, Mo.), 5 μM Q-VD-OPh (Apex Bio; Houston, Tex.), 50 μM Necrostatin-1 (Cayman Chemical; Ann Arbor, Mich.), or 50 μM Boc-D-FMK Apex Bio; Houston, Tex.). Matched samples were processed immediately after isolation and after 24, 48, 72, and 96 hours of storage at 21° C. Samples were stained with R-phycoerythrin-conjugated Annexin V, SYTOX Green, Hoechst 33342 (all Life Technologies; Carlsbad, Calif.), and allophycocyanin-conjugated CD45 (Huntington Valley) and imaged using an ImageStream^X Mk. II Imaging Flow Cytometer (Amnis Corporation; Seattle, Wash.).

neutrophils [2] = experiment: Neutrophil migration toward fMLP gradient (microfluidic device)
Procedure: To determine whether neutrophils stored under these conditions were still capable of migrating toward an fMLP gradient, we utilized a microfluidic device previously developed for this purpose. Briefly, fMLP, a neutrophil chemoattractant, is added to two outer chambers. The outer chambers are connected to an inner chamber through a series of channels, creating a gradient. The inner chamber was then filled with neutrophils. Freshly isolated neutrophils were immediately evaluated to establish a time 0 migratory response, then the preserved neutrophils were examined after 72 and 96 h ambient storage for comparison.

CCCCCCCCCCCCCC(=O)O[C@@H]1[C@@H](C)[C@@]2(O)[C@@H](C=C(CO)C[C@]3(O)C(=O)C(C)=C[C@@H]23)[C@@H]2C(C)(C)[C@]12OC(C)=O [phorbol myristate acetate]
neutrophil elastase level (neutrophil elastase): 81.4±64.4 mU/mL

CCCCS(=O)(=O)N[C@@H](Cc1ccc(OCCCCC2CCNCC2)cc1)C(=O)O [Tirofiban]
platelet activation (PAC-1, CD62/p-selectin) of cold treated platelets (platelets): minimally activated

CC(C)[C@H](NC(=O)c1ccc2ccccc2n1)C(=O)N[C@@H](CC(=O)O)C(=O)COc1c(F)cccc1F [Q-VD-OPh, (3S)-5-(2,6-difluorophenoxy)-3-[[(2S)-3-methyl-2-(quinoline-2-carbonylamino)butanoyl]amino]-4-oxopentanoic acid]
CD45 biomarker expression of neutrophils (neutrophils [1]; 5 μM, 96 h ambient storage): effectively preserved CD45 biomarker expression | apoptosis inhibition in neutrophils (neutrophils [1]; 5 μM, IMDM+20% FBS, ambient storage up to 96 h): highly effective at apoptosis inhibition | stability of treated neutrophils under ambient storage (neutrophils [1]; ambient storage conditions): 72 to 96 h | migratory response to fMLP (neutrophils [2]; after 72 h ambient storage, vs freshly isolated neutrophils): comparable to that of the freshly isolated neutrophils; also recorded: nearly indistinguishable from the migratory response of the freshly isolated neutrophils | migratory speed toward fMLP gradient (neutrophils [2]; after ambient storage, vs fresh neutrophils): identical to the fresh neutrophils; also recorded: maintained comparable speed to freshly isolated neutrophils
